Measured values taken from patent US9580430B2, “9H-pyrimido[4,5-B]indoles and related analogs as BET bromodomain inhibitors” (THE REGENTS OF THE UNIVERSITY OF MICHIGAN, priority 2014, dated 2017).
Read-outs that look alike come from different tables or passages of the source.

Tests used:
[1] = biological target: T1, recombinant BRD4 BD1 (Homo sapiens, UniProt O60885); assay: Competitive fluorescence-polarization (FP) binding assay, BRD4 BD1; conditions: for Ki: read-out: Binding affinities (FP) BRD4BD1 Ki; for IC50 (nM) BRD4 BD1: probe 1.5 nM
T1 construct: for recombinant BRD4 BD1 and BRD4 BD2 proteins
Protocol: (§1) Fluorescence Polarization (FP) competitive binding studies were carried out using a FAM labeled fluorescent probe (ZBA248 or BRD-1F) to determine binding affinities of representative Compounds of the Disclosure for recombinant BRD4 BD1 and BRD4 BD2 proteins. For example, equilibrium dissociation constants (Kd) values of ZBA248 to these […] proteins were determined from protein saturation experiments by monitoring the total fluorescence polarization of mixtures composed with the fluorescent probe at a fixed concentration and proteins with increasing concentrations up to full saturation. Serial dilutions of testing protein were mixed with ZBA248 to a final volume of 200 μl in the assay buffer. […] Plates were incubated at room temperature for 30 minutes with gentle shaking to assure equilibrium. […] Kd values of ZBA248 were calculated by fitting the sigmoidal dose-dependent FP increases as a function of protein concentrations using Graphpad Prism 6.0 software (Graphpad Software, San Diego, Calif.).
(§2) The IC50 and Ki values of representative Compounds of the Disclosure were determined in a competitive binding experiment as described above. Mixtures of 10 μl of the tested compounds in assay buffer with 40% Ethylene Glycol and 190 μl of preincubated protein/probe complex solution in the assay buffer (100 mM potassium phosphate, pH 6.5, 0.01% Triton X-100) were added into assay plates which were incubated at room temperature for 30 minutes with gentle shaking. Final concentrations of proteins were 10 and 6 nM in assays for BD1 and BD2 of BRD4, respectively. […] FP values were measured as described above. IC50 values were determined by nonlinear regression fitting of the competition curves.

[2] = biological target: T2, recombinant BRD4 BD2 (Homo sapiens, UniProt O60885); assay: Competitive fluorescence-polarization (FP) binding assay, BRD4 BD2; conditions: for Ki: read-out: Binding affinities (FP) BRD4BD2 Ki; for IC50 (nM) BRD4 BD2: probe 1.5 nM
T2 construct: for recombinant BRD4 BD1 and BRD4 BD2 proteins
Protocol: as §1, §2

[3] = competitive FP assay, protein 10 nM, probe […], read-out: IC50 (nM) BRD4 BD1
[4] = competitive FP assay, protein 6 nM, probe […], read-out: IC50 (nM) BRD4 BD2
[5] = FP competitive binding, BRD4 BD1, read-out: Binding affinities (FP) BRD4BD1 IC50
[6] = FP competitive binding, BRD4 BD1
[7] = FP competitive binding, BRD4 BD2, read-out: Binding affinities (FP) BRD4BD2 IC50
[8] = FP competitive binding, BRD4 BD2

Row | IC50 [1, 3] | IC50 [2, 4] | IC50 [1, 5] | Ki [1, 6] | IC50 [2, 7] | Ki [2, 8] | SMILES
1 | 864 nM | 379 nM |  |  |  |  | COc1cc2c(cc1-c1c(C)noc1C)[nH]c1nc(C)nc(Oc3cccnc3)c12 [Cpd. No. 96, 4-(6-methoxy-2-methyl-4-(pyridin-3-yloxy)-9H-pyrimido[4,5-b]indol-7-yl)-3,5-dimethylisoxazole]
2 |  |  | 63 nM | 15 nM | 318 nM | 94 nM | COc1cc2c(nc1-c1c(C)noc1C)[nH]c1nc(C)nc(Nc3cc(C4CC4)nn3C)c12 [Cpd. No. 304]
3 | 10.3 nM | 3.1 nM |  |  |  |  | COCCn1nc(C2CC2)cc1Nc1nc(C)nc2[nH]c3cc(-c4c(C)noc4C)c(OC)cc3c12 [Cpd. No. 266, N-(3-Cyclopropyl-1-(2-methoxyethyl)-1H-pyrazol-5-yl)-7-(3,5-dimethylisoxazol-4-yl)-6-methoxy-2-methyl-9H-pyrimido[4,5-b]indol-4-amine]
4 | > 1000 nM | > 1000 nM |  |  |  |  | COc1cc2c(cc1-c1c(C)noc1C)[nH]c1nc(C)nc(Oc3cccc(Cl)c3)c12 [Cpd. No. 95, 4-(4-(3-chlorophenoxy)-6-methoxy-2-methyl-9H-pyrimido[4,5-b]indol-7-yl)-3,5-dimethylisoxazole]
5 | 14.1 nM |  |  |  |  |  | COc1cc2c(cc1-c1c(C)noc1C)[nH]c1nc(C)nc(Nc3cc(C4CC4)nn3CCN(C)C)c12 [Cpd. No. 160, N-(3-Cyclopropyl-1-(2-(dimethylamino)ethyl)-1H-pyrazol-5-yl)-7-(3,5-dimethylisoxazol-4-yl)-6-methoxy-2-methyl-9H-pyrimido[4,5-b]indol-4-amine]
6 | 2.9 nM | 1.3 nM |  |  |  |  | COCc1nc(Nc2cc(C3CC3)nn2C)c2c(n1)[nH]c1cc(-c3c(C)noc3C)c(OC)cc12 [Cpd. No. 207, N-(3-cyclopropyl-1-methyl-1H-pyrazol-5-yl)-7-(3,5-dimethylisoxazol-4-yl)-6-methoxy-2-(methoxymethyl)-9H-pyrimido[4,5-b]indol-4-amine]
7 | > 1000 nM | > 1000 nM |  |  |  |  | COc1cc2c(cc1-c1c(C)noc1C)[nH]c1nc(C)nc(Sc3ccccc3C(C)C)c12 [Cpd. No. 25, 4-(4-((2-isopropylphenyl)thio)-6-methoxy-2-methyl-9H-pyrimido[4,5-b]indol-7-yl)-3,5-dimethylisoxazole]
8 |  |  | 28.7 nM | 5.1 nM | 18.5 nM | 4.6 nM | COc1cc2c(cc1-c1c(C)noc1C)[nH]c1ccnc(Nc3c4c(nn3C(C)C)CCC4)c12 [Cpd. No. 286, 7-(3,5-dimethylisoxazol-4-yl)-N-(2-isopropyl-2,4,5,6-tetrahydrocyclopenta[c]pyrazol-3-yl)-8-methoxy-5H-pyrido[4,3-b]indol-1-amine]
9 |  |  | 18.9 nM | 3.7 nM | 9.8 nM | 2.1 nM | CCn1nc(C2CC2)cc1Nc1nccc2[nH]c3cc(-c4c(C)noc4C)c(OC)cc3c12 [Cpd. No. 285, N-(3-cyclopropyl-1-ethyl-1H-pyrazol-5-yl)-7-(3,5-dimethylisoxazol-4-yl)-8-methoxy-5H-pyrido[4,3-b]indol-1-amine]
10 | 8.8 nM |  |  |  |  |  | COc1cc2c(cc1-c1c(C)noc1C)[nH]c1nc(C)nc(Nc3cc(C4CC4)nn3C3CNC3)c12 [Cpd. No. 163, N-(1-(Azetidin-3-yl)-3-cyclopropyl-1H-pyrazol-5-yl)-7-(3,5-dimethylisoxazol-4-yl)-6-methoxy-2-methyl-9H-pyrimido[4,5-b]indol-4-amine]
11 | 5.6 nM |  |  |  |  |  | COc1cc2c(cc1-c1c(C)noc1C)[nH]c1nc(N)nc(Nc3cc(C4CC4)nn3C)c12 [Cpd. No. 206, N4-(3-cyclopropyl-1-methyl-1H-pyrazol-5-yl)-7-(3,5-dimethylisoxazol-4-yl)-6-methoxy-9H-pyrimido[4,5-b]indole-2,4-diamine]
12 | 70 nM | 79 nM |  |  |  |  | COc1cc2c(cc1-c1c(C)noc1C)[nH]c1nc(C)nc(Nc3ccnc(C)c3)c12 [Cpd. No. 248, 7-(3,5-dimethylisoxazol-4-yl)-6-methoxy-2-methyl-N-(2-methylpyridin-4-yl)-9H-pyrimido[4,5-b]indol-4-amine]
